In the CheMixHub viscosity set:
± gives the uncertainty stated by the source.

Assay: xn = mol fraction of the nth substance listed

COCC(C)O (stereo not given) + CS(C)=O
viscosity [mPa·s], 101 kPa
Conditions | 298.15 K | 303.15 K | 308.15 K | 313.15 K | 318.15 K
x1 = 0.0436 | 1.79 ± 0.17 | 1.54 ± 0.15 | 1.47 ± 0.14 | 1.39 ± 0.13 | 1.31 ± 0.13
x1 = 0.0879 | 1.79 ± 0.17 | 1.54 ± 0.15 | 1.47 ± 0.14 | 1.38 ± 0.13 | 1.3 ± 0.12
x1 = 0.1327 | 1.78 ± 0.17 | 1.53 ± 0.14 | 1.46 ± 0.14 | 1.38 ± 0.13 | 1.3 ± 0.12
x1 = 0.1781 | 1.78 ± 0.17 | 1.53 ± 0.14 | 1.46 ± 0.14 | 1.37 ± 0.13 | 1.29 ± 0.12
x1 = 0.2242 | 1.78 ± 0.17 | 1.53 ± 0.14 | 1.46 ± 0.14 | 1.37 ± 0.13 | 1.29 ± 0.12
x1 = 0.2709 | 1.77 ± 0.16 | 1.53 ± 0.14 | 1.45 ± 0.14 | 1.36 ± 0.13 | 1.29 ± 0.12
x1 = 0.3183 | 1.77 ± 0.16 | 1.52 ± 0.14 | 1.45 ± 0.14 | 1.36 ± 0.13 | 1.28 ± 0.12
x1 = 0.3663 | 1.77 ± 0.16 | 1.52 ± 0.14 | 1.45 ± 0.14 | 1.35 ± 0.13 | 1.28 ± 0.12
x1 = 0.415 | 1.76 ± 0.16 | 1.52 ± 0.14 | 1.44 ± 0.14 | 1.35 ± 0.13 | 1.28 ± 0.12
x1 = 0.4644 | 1.75 ± 0.16 | 1.51 ± 0.14 | 1.43 ± 0.14 | 1.34 ± 0.13 | 1.27 ± 0.12
x1 = 0.5145 | 1.75 ± 0.16 | 1.51 ± 0.14 | 1.43 ± 0.14 | 1.34 ± 0.13 | 1.26 ± 0.12
x1 = 0.5653 | 1.75 ± 0.16 | 1.5 ± 0.14 | 1.42 ± 0.14 | 1.33 ± 0.13 | 1.25 ± 0.12
x1 = 0.6169 | 1.73 ± 0.16 | 1.49 ± 0.14 | 1.41 ± 0.13 | 1.31 ± 0.13 | 1.24 ± 0.12
x1 = 0.6692 | 1.72 ± 0.16 | 1.47 ± 0.14 | 1.39 ± 0.13 | 1.29 ± 0.12 | 1.22 ± 0.12
x1 = 0.7224 | 1.7 ± 0.16 | 1.45 ± 0.14 | 1.37 ± 0.13 | 1.27 ± 0.12 | 1.2 ± 0.12
x1 = 0.7762 | 1.67 ± 0.16 | 1.42 ± 0.14 | 1.34 ± 0.13 | 1.24 ± 0.12 | 1.17 ± 0.11
x1 = 0.8864 | 1.62 ± 0.15 | 1.36 ± 0.13 | 1.28 ± 0.12 | 1.18 ± 0.11 | 1.11 ± 0.11

O=[N+]([O-])c1ccccc1 + CCC(C)=O
303.15 K, 101 kPa
Conditions | viscosity [mPa·s]
x2 = 0.1487 | 1.32 ± 0.0041
x2 = 0.3244 | 1.039 ± 0.0041
x2 = 0.4126 | 0.925 ± 0.004
x2 = 0.4992 | 0.82 ± 0.004
x2 = 0.7145 | 0.607 ± 0.004
x2 = 0.78 | 0.55 ± 0.004

CN(C)C=O + CCO
viscosity [mPa·s], 101 kPa
Conditions | 293.15 K | 298.15 K | 303.15 K | 313.15 K | 323.15 K
x1 = 0.3863 | – | 0.881 ± 0.23 | – | – | –
x1 = 0.5 | – | – | 0.758 ± 0.019 | 0.649 ± 0.017 | 0.563 ± 0.015
x2 = 0.0999 | 0.871 ± 0.012 | 0.819 ± 0.011 | 0.77 ± 0.011 | 0.682 ± 0.01 | 0.61 ± 0.01
x2 = 0.2 | 0.876 ± 0.012 | 0.818 ± 0.011 | 0.767 ± 0.011 | 0.68 ± 0.01 | 0.604 ± 0.01
x2 = 0.3 | 0.882 ± 0.012 | 0.822 ± 0.012 | 0.77 ± 0.011 | 0.681 ± 0.01 | 0.603 ± 0.01
x2 = 0.4 | 0.881 ± 0.012 | 0.821 ± 0.012 | 0.767 ± 0.011 | 0.674 ± 0.01 | 0.596 ± 0.01
x2 = 0.5001 | 0.872 ± 0.012 | 0.813 ± 0.012 | 0.759 ± 0.011 | 0.668 ± 0.01 | 0.592 ± 0.01
x2 = 0.6 | 0.886 ± 0.012 | 0.825 ± 0.012 | 0.769 ± 0.011 | 0.67 ± 0.01 | 0.59 ± 0.01
x2 = 0.7 | 0.919 ± 0.013 | 0.852 ± 0.012 | 0.791 ± 0.011 | 0.685 ± 0.01 | 0.598 ± 0.01
x2 = 0.8 | 0.97 ± 0.013 | 0.897 ± 0.012 | 0.828 ± 0.012 | 0.712 ± 0.011 | 0.616 ± 0.01
x2 = 0.9001 | 1.067 ± 0.014 | 0.977 ± 0.013 | 0.897 ± 0.012 | 0.762 ± 0.011 | 0.651 ± 0.01

CCOCCOCCO + CCCN
298.15 K, 101 kPa
Conditions | viscosity [mPa·s]
x1 = 0.0118 | 0.374 ± 0.007
x1 = 0.0312 | 0.412 ± 0.007
x1 = 0.0523 | 0.448 ± 0.007
x1 = 0.0786 | 0.495 ± 0.007
x1 = 0.099 | 0.533 ± 0.007
x1 = 0.1259 | 0.59 ± 0.008
x1 = 0.1728 | 0.701 ± 0.008
x1 = 0.2037 | 0.789 ± 0.009
x1 = 0.2298 | 0.868 ± 0.009
x1 = 0.2646 | 0.986 ± 0.01
x1 = 0.3048 | 1.133 ± 0.01
x1 = 0.3392 | 1.272 ± 0.011
x1 = 0.4055 | 1.566 ± 0.013
x1 = 0.4419 | 1.745 ± 0.014
x1 = 0.4758 | 1.917 ± 0.015
x1 = 0.5112 | 2.092 ± 0.016
x1 = 0.5558 | 2.317 ± 0.018
x1 = 0.5903 | 2.488 ± 0.019
x1 = 0.633 | 2.695 ± 0.02
x1 = 0.6711 | 2.869 ± 0.022
x1 = 0.7054 | 3.013 ± 0.023
x1 = 0.7412 | 3.154 ± 0.024
x1 = 0.7802 | 3.297 ± 0.025
x1 = 0.8328 | 3.464 ± 0.026
x1 = 0.8664 | 3.549 ± 0.027
x1 = 0.8935 | 3.616 ± 0.027
x1 = 0.9187 | 3.674 ± 0.027
x1 = 0.9388 | 3.712 ± 0.028
x1 = 0.9709 | 3.779 ± 0.028

CCCCCO + COC(=O)OC
101.3 kPa
Conditions | viscosity [mPa·s]
293.15 K, x2 = 0.0482 | 3.367 ± 0.15
293.15 K, x2 = 0.0991 | 2.836 ± 0.13
293.15 K, x2 = 0.1941 | 2.11 ± 0.097
293.15 K, x2 = 0.2974 | 1.605 ± 0.076
293.15 K, x2 = 0.3939 | 1.304 ± 0.063
293.15 K, x2 = 0.4993 | 1.092 ± 0.054
293.15 K, x2 = 0.6 | 0.939 ± 0.047
293.15 K, x2 = 0.7013 | 0.81 ± 0.041
293.15 K, x2 = 0.8013 | 0.704 ± 0.037
293.15 K, x2 = 0.8915 | 0.635 ± 0.034
293.15 K, x2 = 0.9503 | 0.619 ± 0.033
298.15 K, x2 = 0.0457 | 2.905 ± 0.13
298.15 K, x2 = 0.1016 | 2.46 ± 0.11
298.15 K, x2 = 0.1979 | 1.88 ± 0.087
298.15 K, x2 = 0.3057 | 1.441 ± 0.069
298.15 K, x2 = 0.4024 | 1.179 ± 0.057
298.15 K, x2 = 0.503 | 0.988 ± 0.049
298.15 K, x2 = 0.5793 | 0.878 ± 0.044
298.15 K, x2 = 0.7034 | 0.739 ± 0.038
298.15 K, x2 = 0.8003 | 0.655 ± 0.035
298.15 K, x2 = 0.9018 | 0.597 ± 0.032
298.15 K, x2 = 0.9494 | 0.586 ± 0.032
303.15 K, x1 = 0.0192 | 0.542 ± 0.03
303.15 K, x2 = 0.0539 | 2.488 ± 0.11
303.15 K, x2 = 0.0906 | 2.228 ± 0.1
303.15 K, x2 = 0.1979 | 1.66 ± 0.078
303.15 K, x2 = 0.2613 | 1.416 ± 0.067
303.15 K, x2 = 0.3902 | 1.066 ± 0.052
303.15 K, x2 = 0.4928 | 0.89 ± 0.045
303.15 K, x2 = 0.5918 | 0.759 ± 0.039
303.15 K, x2 = 0.6923 | 0.661 ± 0.035
303.15 K, x2 = 0.792 | 0.601 ± 0.032
303.15 K, x2 = 0.8943 | 0.56 ± 0.031
313.15 K, x2 = 0.0467 | 1.972 ± 0.091
313.15 K, x2 = 0.1037 | 1.678 ± 0.079
313.15 K, x2 = 0.2514 | 1.161 ± 0.057
313.15 K, x2 = 0.3005 | 1.046 ± 0.052
313.15 K, x2 = 0.3996 | 0.876 ± 0.044
313.15 K, x2 = 0.5052 | 0.75 ± 0.039
313.15 K, x2 = 0.6059 | 0.659 ± 0.035
313.15 K, x2 = 0.7024 | 0.596 ± 0.032
313.15 K, x2 = 0.8053 | 0.54 ± 0.03
313.15 K, x2 = 0.9051 | 0.502 ± 0.028
313.15 K, x2 = 0.9651 | 0.494 ± 0.028

O=[N+]([O-])c1ccccc1 + OCCOCCO
viscosity [mPa·s], 101 kPa
Conditions | 298.15 K | 308.15 K
x2 = 0.0441 | 1.987 ± 0.093 | 1.691 ± 0.081
x2 = 0.1493 | 2.565 ± 0.12 | 2.115 ± 0.099
x2 = 0.2505 | 3.312 ± 0.15 | 2.642 ± 0.12
x2 = 0.3502 | 4.303 ± 0.19 | 3.31 ± 0.15
x2 = 0.4438 | 5.55 ± 0.24 | 4.117 ± 0.18
x2 = 0.4934 | 6.373 ± 0.26 | 4.632 ± 0.2
x2 = 0.5487 | 7.457 ± 0.3 | 5.293 ± 0.23
x2 = 0.6506 | 10.04 ± 0.38 | 6.804 ± 0.28
x2 = 0.751 | 13.58 ± 0.49 | 8.774 ± 0.34
x2 = 0.8498 | 18.47 ± 0.64 | 11.34 ± 0.42
x2 = 0.9429 | 24.89 ± 0.84 | 14.54 ± 0.52
